Measured values from patent publication US11746383B2, “Biomarker DLEC1 for cancer” (The Chinese University of Hong Kong, priority 2018, dated 2023).

Tests used:
[1] = system: DLEC1 expression in ESCC, lung and NPC carcinoma cell lines; test: Demethylation treatment (Aza, TSA) and DLEC1 expression / promoter methylation analysis (RT-PCR, MSP, BGS); assay type: cell-based, human
Text: A panel of ESCC, NPC and lung carcinoma cell lines was used. Immortalized normal esophageal epithelial (NE1, NE3, Het-1A), normal nasopharyngeal epithelial (NP69) and HEK293T cell lines were used. Cell lines were maintained in RPMI or DMEM medium (Gibco BRL, Rockville, Md.) with 10% fetal bovine serum. Human normal adult tissue RNA samples were obtained commercially (Stratagene, La Jolla, Calif., or Millipore Chemicon, Billerica, Mass.). Primary carcinoma tissues of Chinese ESCC, NPC and lung, some with matched normal samples, have been descried before. Cell lines were treated with 5 μM of 5-Aza-2′-deoxycytidine (Aza) (Sigma, St. Louis, Mo.) for 3 days, or even followed with ˜16 h additional TSA (final concentration […]) treatment as described. MSP and BGS were conducted according to previous reports. MSP was conducted for 40 cycles at the annealing temperatures of 60° C. for M and 58° C. for U. Amplified products from BGS primer set were cloned into pCR4-Topo vector (Invitrogen, Carlsbad, Calif.), with 6-8 colonies randomly chosen and sequenced. RNA was reverse-transcribed using MuLV reverse transcriptase (GeneAmp RNA PCR kit, Applied Biosystems). RT-PCR was performed as described previously using GAPDH as a control.

[2] = system: DLEC1 CGI; test: ChIP assay, acetylated histone H4; assay type: cell-based, human; conditions: carcinoma cells following TSA treatment
Method: ChIP assay was performed as described previously. Antibody to acetylated histone H4 (Upstate Biotechnology) was used to precipitate cross-linked chromatin. ACTIN was employed as a control for normalization of each PCR product.

[3] = molecular target: T1, STAT3 (Homo sapiens, UniProt P40763); test: Co-immunoprecipitation with STAT3; assay type: binding
T1 construct: Association of endogenous DLEC1 and STAT3 proteins in HEK293T cells; endogenous in cells; host or cells: HEK293T
Method: (§1) Human IL-6 (PF01229) (Peprotech, Rocky Hill, N.J.) was used. Western blot and IP experiments were performed according to previous protocols.

[4] = system: ESCC, lung and NPC carcinoma cells; test: Monolayer colony formation assay; assay type: cell-based, human; conditions: ectopically expressed DLEC1 in ESCC
Method: (§2) Four pairs of primers (Table 6) were used to generate 4 DLEC1 fragments based on published DLEC1 sequence (GenBank accession number AB020522). Reverse transcription was carried out using normal testis RNA as template (BD Biosciences, Palo Alto, Calif.). The 4 product fragments were ligated to generate pcDNA3.1(+)-Flag-DLEC1 and pCMV-Flag-DLEC1-V5 expression plasmids. The mutation for three YXXQ motifs of DLEC1 (DLEC1-3Y, YXXQ-GGGG (“GGGG” disclosed as SEQ ID NO: 7)) was introduced by PCR into pCMV-Flag-DLEC1-V5 vector, with sequence confirmed. STAT3C expression plasmid was a gift from Prof. Honglin Chen (University of Hong Kong). Cells were transfected with lipofectamine 3000 (Invitrogen, Carlsbad, Calif.), and the cells were cultured in RPMI 1640 supplemented with 10% FBS and selected in 400 μg/mL of G418 for 20-30 days to establish some stable cell pools, with confirmed DLEC1 expression.
(§3) Colony formation assay was conducted as previously described. All experiments were performed in triplicate wells 3 times. To monitor cell proliferation, 1000 cells were plated in a 96-well plate and incubated at 37° C. in selective media for 3-(4,5-dimethylthiazolyl-2)-2,5-diphenyltetrazolium bromide (MTT) assay.

[5] = system: p-ERK, p-AKT, p-STAT3, active β-catenin; test: Western blot of signaling protein phosphorylation; assay type: cell-based, human
Method: as §1

[6] = molecular target: T2, JAK2 (Homo sapiens, UniProt O60674); test: Co-immunoprecipitation with JAK2; assay type: binding
T2 construct: endogenous in cells; host or cells: HEK293T
Method: as §1

[7] = system: carcinoma cells; test: Cell apoptosis assay (Annexin V-FITC/PI flow cytometry, Western blot of apoptosis markers); assay type: cell-based, human
Method: (§4) Flow cytometry analysis of cell cycle and apoptosis was described previously. Cells were stained with propidium iodide (PI) and Annexin V-FITC (BD Biosciences, Bedford, Mass.), and sorted by Accuri C6 (BD Biosciences, Bedford, Mass.) according to the manufacturer's protocol.
as §1

[8] = system: multiple carcinoma cells stably-expressing DLEC1; test: Cell proliferation (MTT) assay; assay type: cell-based, human
Method: as §2, §3

[9] = system: KYSE150, H1299 and HONE1 cells; test: Cell cycle analysis by flow cytometry (propidium iodide); assay type: cell-based, human; conditions: DLEC1-expressing KYSE150, H1299 and HONE1 cells
Text: as §4

[10] = system: carcinoma cells; test: EMT, actin stress fiber and stemness marker analysis (immunofluorescence, Western blot, qPCR); assay type: cell-based, human
Method: RNA was reverse-transcribed using MuLV reverse transcriptase (GeneAmp RNA PCR kit, Applied Biosystems). RT-PCR was performed as described previously using GAPDH as a control.
Cells grown on coverslips were stained by indirect immunofluorescence as described previously. Briefly, cells were incubated with primary antibodies against DLEC1, E-cadherin, or Vimentin and then incubated with Alexa Fluor 594-conjugated secondary antibody against mouse IgG (A11062) (Invitrogen Molecular Probes, Carlsbad, Calif.), or FITC-conjugated secondary antibody against rabbit IgG (F0205) (DAKO, Denmark). To analyze the effects of DLEC1 on actin stress fiber formation, cells were serum starved for 24 h before incubation in medium-containing 5% fetal bovine serum. After 1 h, cells were fixed and stained by Rhodamine-labeled phalloidin (Invitrogen Molecular Probes). Cells were then counterstained with DAPI and imaged with an Olympus BX51 microscope (Olympus Corporation, Tokyo, Japan).

[11] = system: NF-κB, AP-1, STATs-bs, TopFlash, SRE and PAI-1 reporters; test: Dual-luciferase reporter assay of signaling pathways; assay type: cell-based, human; conditions: carcinoma cells (ESCC, lung, NPC) or immortalized normal epithelial cells (NP69)
Method: The promoter activities were determined by luciferase reporter assays. Luciferase reporters of several key signaling pathways, including NF-κB-luc, AP-1-luc, SRE-luc, STATs-bs-luc, TopFlash-luc, and PAI-luc were used to examine signaling pathway regulated by DLEC1 Cells were transiently co-transfected with DLEC1 expression vector and phRL-TK […]. […] After 48 h, cells were lysed and luciferase activities were measured using Dual-Luciferase® Reporter Assay System (Promega, Madison, Wis.). To normalize transfection efficiency, phRL-TK luciferase activities were measured as an internal control. At least three independent experiments were performed, with each repeated in triplicates.

[12] = system: carcinoma cells; test: Scratch wound-healing assay; assay type: cell-based, human; conditions: confluent monolayer, versus mock cells
Method: Cell motility was assessed using a scratch wound-healing assay. Cells transient transfected with DLEC1 were cultured in 6-well plates until confluent. A single scratch was produced in the cell layer using a sterile tip. After incubation for 24 and 48 hours, cells were photographed under a phase contrast microscope. The experiments were performed in triplicates.

[13] = system: ESCC, lung and NPC carcinoma cells; test: Transwell migration and Matrigel invasion assays; assay type: cell-based, human; conditions: transwell assay, ectopic expression of DLEC1
Method: Transwell migration and invasion assays were performed as previously described. The numbers of migrated or invaded cells were observed and counted using a light microscope. Five fields were randomly chosen and the numbers of penetrated cells were counted.

T2 sequence (O60674 whole entry): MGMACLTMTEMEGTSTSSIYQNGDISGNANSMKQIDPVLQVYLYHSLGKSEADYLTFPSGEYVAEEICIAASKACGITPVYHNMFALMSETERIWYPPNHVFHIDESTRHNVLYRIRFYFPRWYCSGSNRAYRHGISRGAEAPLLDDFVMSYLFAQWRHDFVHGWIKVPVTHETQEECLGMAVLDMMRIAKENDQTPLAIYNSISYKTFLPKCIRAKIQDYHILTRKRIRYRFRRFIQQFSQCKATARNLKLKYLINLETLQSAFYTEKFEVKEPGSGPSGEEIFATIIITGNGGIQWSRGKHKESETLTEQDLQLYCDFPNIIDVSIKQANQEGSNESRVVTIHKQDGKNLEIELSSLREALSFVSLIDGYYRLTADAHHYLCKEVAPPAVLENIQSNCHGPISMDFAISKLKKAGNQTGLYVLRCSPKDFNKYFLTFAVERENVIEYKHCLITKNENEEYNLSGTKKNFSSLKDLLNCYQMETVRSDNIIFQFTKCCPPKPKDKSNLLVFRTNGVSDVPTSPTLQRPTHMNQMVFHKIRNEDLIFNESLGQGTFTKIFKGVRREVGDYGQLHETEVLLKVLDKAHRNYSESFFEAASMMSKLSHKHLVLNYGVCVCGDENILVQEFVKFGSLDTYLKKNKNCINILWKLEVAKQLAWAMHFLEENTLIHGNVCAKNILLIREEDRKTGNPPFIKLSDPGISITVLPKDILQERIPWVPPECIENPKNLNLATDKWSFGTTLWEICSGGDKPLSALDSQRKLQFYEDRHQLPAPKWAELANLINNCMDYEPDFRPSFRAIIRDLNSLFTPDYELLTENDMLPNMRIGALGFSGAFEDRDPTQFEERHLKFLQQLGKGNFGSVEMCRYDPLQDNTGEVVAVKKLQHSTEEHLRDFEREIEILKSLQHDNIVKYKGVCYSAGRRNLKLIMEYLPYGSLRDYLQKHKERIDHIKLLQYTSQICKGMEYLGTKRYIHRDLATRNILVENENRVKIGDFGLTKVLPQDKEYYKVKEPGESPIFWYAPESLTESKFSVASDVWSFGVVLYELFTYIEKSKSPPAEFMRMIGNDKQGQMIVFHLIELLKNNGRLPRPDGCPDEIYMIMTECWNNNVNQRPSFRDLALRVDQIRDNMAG
T1 sequence (P40763 whole entry): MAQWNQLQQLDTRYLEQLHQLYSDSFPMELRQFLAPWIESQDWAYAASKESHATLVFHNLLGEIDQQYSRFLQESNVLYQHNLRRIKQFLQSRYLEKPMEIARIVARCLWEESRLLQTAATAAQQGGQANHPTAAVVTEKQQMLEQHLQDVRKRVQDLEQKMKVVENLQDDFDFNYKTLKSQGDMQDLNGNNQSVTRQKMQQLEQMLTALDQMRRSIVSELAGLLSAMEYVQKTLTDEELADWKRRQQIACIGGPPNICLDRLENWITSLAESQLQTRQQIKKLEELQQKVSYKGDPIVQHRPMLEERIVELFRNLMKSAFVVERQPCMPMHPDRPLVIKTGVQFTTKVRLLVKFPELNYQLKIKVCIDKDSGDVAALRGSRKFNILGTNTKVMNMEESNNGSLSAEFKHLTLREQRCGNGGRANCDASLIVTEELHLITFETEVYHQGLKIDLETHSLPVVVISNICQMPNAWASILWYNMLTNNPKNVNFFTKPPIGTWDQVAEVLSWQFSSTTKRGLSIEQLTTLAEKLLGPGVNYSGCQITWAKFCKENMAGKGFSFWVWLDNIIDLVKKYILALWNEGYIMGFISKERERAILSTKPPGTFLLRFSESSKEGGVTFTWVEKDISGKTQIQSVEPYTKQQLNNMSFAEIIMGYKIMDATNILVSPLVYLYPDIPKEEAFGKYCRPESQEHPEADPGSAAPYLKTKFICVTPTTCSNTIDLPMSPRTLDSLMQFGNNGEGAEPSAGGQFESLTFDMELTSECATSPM

**Q.** Which results are given for CC(/C=C/C(=O)NO)=C\[C@@H](C)C(=O)c1ccc(N(C)C)cc1 [TSA, Trichostatin A]?
**A.** DLEC1 expression ([1]; TSA-treated lung carcinoma cell line H1299): moderately induced; binding of acetylated histone 4 to the DLEC1 CGI [2]: increased

**Q.** What does the source list for Nc1ncn([C@H]2C[C@H](O)[C@@H](CO)O2)c(=O)n1 [Aza, 5-aza-2′-deoxycytidine]?
**A.** Expression of DLEC1 ([1]; NPC cells): restored or increased; DLEC1 expression ([1]; cell lines of ESCC, lung and NPC with silenced DLEC1, 5 μM Aza for 3 days, or followed with ~16 h TSA): increased

**Q.** With “DLEC1: 1755-amino acid human DLEC1 protein (SEQ ID NO:4), ectopically expressed from pcDNA3.1(+)-Flag-DLEC1 / pCMV-Flag-DLEC1-V5 plasmids” as the compound, how does the “interaction of DLEC1 with STAT3” value ([3]; IL-6 stimulation) read?
**A.** increased

**Q.** And the “interaction with STAT3/p-STAT3 (Tyr705)” value ([3]; endogenous proteins, HEK293T cells, immunoprecipitation)?
**A.** strong interaction

**Q.** What about the “colony numbers and sizes compared to controls” value [4] of the same compound?
**A.** 10-40%

**Q.** And the “levels of p-ERK (Thr202/Tyr204), p-AKT (Ser473), p-STAT3 (Tyr705 and Ser727) and active β-catenin” value ([5]; DLEC1-expressing carcinoma cells)?
**A.** significantly decreased

**Q.** And the “IL-6 treatment-enhanced STAT3 phosphorylation levels” value ([5]; IL-6 10 ng/mL for 30 min, KYSE150 and H1299 cells)?
**A.** suppress

**Q.** What about the “p-STAT3 levels at both Tyr705 and Ser727 sites” value ([5]; STAT3C-transfected carcinoma cells) of the same compound?
**A.** greatly suppressed

**Q.** And the “p-STAT3 (Tyr705)” value ([5]; increasing doses of DLEC1-expressing plasmids, dose-dependent)?
**A.** Marked decrease

**Q.** What about the “interaction of STAT3 with JAK2” value ([6]; IL-6 dependent manner) of the same compound?
**A.** inhibited

**Q.** And the “interaction with JAK2 and p-STAT3 (Tyr705)” value ([6]; IL-6 stimulation)?
**A.** decreasing

**Q.** What about the “co-precipitation of JAK2” value ([6]; endogenous proteins, HEK293T cells) of the same compound?
**A.** relatively weaker co-precipitation

**Q.** And the “apoptosis markers (cleaved caspase-3 and PARP)” value ([7]; Western blot)?
**A.** increase

**Q.** And the apoptotic cells ([7]; after transfection with DLEC1-expression vector)?
**A.** significantly increased

**Q.** And the growth rates [8]?
**A.** slower growth rates

**Q.** And the cell cycle distribution [9]?
**A.** increased G2-M phase cells and decreased S phase cells

**Q.** What about the “stem cell markers (STAT3, CD44, ABCG2, TWIST and KLF4)” value ([10]; ESCC and lung carcinoma cells, qPCR) of the same compound?
**A.** downregulated

**Q.** And the “E-cadherin, vimentin and metastasis markers (MMP7, Twist)” value ([10]; Western blot)?
**A.** Upregulated E-cadherin and downregulated vimentin and metastasis markers (MMP7, Twist)

**Q.** And the “formation of actin stress fibers” value ([10]; carcinoma cells)?
**A.** disassembled

**Q.** What about the “EMT markers E-cadherin and vimentin” value ([10]; immunofluorescence) of the same compound?
**A.** gain of epithelial marker E-cadherin and loss of mesenchymal marker vimentin

**Q.** And the “reporter activities of NF-κB, AP-1, STATs-bs, TopFlash, SRE and PAI-1 elements-regulated promoters” value [11]?
**A.** markedly repressed

**Q.** What about the “closing of artificial wounds” value [12] of the same compound?
**A.** less proficiency in closing artificial wounds than mock cells

**Q.** What about the cell invasion [13] of the same compound?
**A.** dramatically suppressed

**Q.** And the cell migration [13]?
**A.** dramatically suppressed
